Data from US4803209A, “Substituted 2,3-diphenyl-1,2-dihydroquinoxalines” (International Minerals & Chemical Corp., priority 1987, dated 1989).
Read-outs that look alike come from different tables or passages of the source.

Legend:
[1] = system: Eimeria tenella Eli Lilly Strain 65 (Lilly 65); assay: In vitro anticoccidial test in chick kidney cell monolayers; format: cell-based; details: 72 h, 3 days, read-out: % Inhibition of Coccidia
[2] = system: kidney cell monolayer; assay: Toxicity to cultured kidney cell monolayer in the in vitro anticoccidial test; format: cell-based, chick; design: key: T: toxic (inhibited kidney cell monolayer formation); details: 3 days
Protocol: For in vitro screen tests, Hubbard X Hubbard chicks were maintained on drug-free starter diets in brooders in a coccidia-free room. Water was available ad libitum. At 2-3 weeks of age, 3-6 chicks were sacrificed by decapitation and bled. All tissue culture preparation, propagation and test steps were carried out using strict aseptic techniques. Kidney cells next were combined in a single sterile tube and evenly dispersed by agitation. An appropriate dilution (usually 1/10X to 1/25X) was counted microscopically in a hemocytometer and the cell suspension diluted in 500 ml sterile bottles to 200,000 to 250,000 cells/ml of growth medium. Multiwell tissue culture plates (Falcon No. 3008 or Costar No. 3524) were employed in all in vitro screen tests. Immediately after preparation of the kidney cell suspension, each of the 24 wells of 20 to 60 multiwell plates was inoculated with 1 ml of cells using a sterile syringe-type continuous pipettor (Cornwall). Plates then were incubated at once in a 5% CO2 incubator at 39° C. and ≥80% humidity. At about 24 hours one plate was removed and briefly examined for monolayer initiation under phase microscopy at 200X. At 40-48 hours monolayer growth was well initiated and satisfactory for initiation of drug tests. At this time attached cells were spreading and putting out arm-like projections in many areas of each well. The medium on plates which would not be used for drug tests at this time was replaced with prewarmed EBSS plus antibiotics, and these plates were returned to the incubator until time of use 24 to 48 hours later. The latter step was incorporated to remove debris and toxins from the young cell monolayers and also delay monolayer growth until initiation of drug tests. For each test compound an estimated 10 mg of test compound was placed in a 15×150 mm disposable screw-cap test tube (Belco No. 2009-16150). In a typical test employing 25 multiwell plates, tubes containing test compounds were set up and four drops of dimethylsulfoxide (DMSO) were added to each tube. Next 10 ml sterile distilled water was added to each tube and the tubes were capped tightly and mixed by agitation. Primary compound solutions containing about 1000 ppm test compound were serially diluted in disposable tubes (Falcon No. 2051) containing 1/2 strength growth medium, to yield the concentrations shown in Table 3 below. Sterile 1 cc disposable syringes (Tomac) were employed both for making dilutions and adding test compounds to plates. In setting up drug tests, five multiwell plates containing 48-96 hr monolayers were removed as a group from the incubator. The medium was quickly poured off one multiwell plate and 0.5 ml of the lowest dilution of test compound was added to each of two wells in the first column of wells, and an equal volume of a higher dilution of the same substance was added to the remaining two wells in the same column. This procedure was repeated with the next test substance using the wells in the second column on the plate. Dilutions of the remaining test substances were placed in corresponding columns of the plate. After compounds had been added to the first set of five plates, 0.5 ml of a 2×10^5 /ml suspension of sporozoites was added to each well of each plate using a sterile continuous pipettor. To minimize the effects of exposing growth medium to the atmosphere, all additions were made rapidly and inoculated plates were immediately returned to the incubator. Three days after drug and sporozoite addition, plates were removed a few at a time from the incubator for enumeration of parasites. […] The medium was quickly discarded and counts made under phase microscopy at 200X of the total numbers of schizonts and […] per field in each of five random fields. The average number of parasites per field was then calculated. The results of the in vitro anticoccidial tests, which are given in Table 3 below, show the compounds to have toxic effects upon cultured cells.

[3] = system: Salmonella typhimurium; format: cell-based
[4] = system: antibiotic resistant E. coli (E.C. 324); format: cell-based; details: Gram Neg., 6 h, 37° C., aerobic
[5] = system: E. coli strain 046 (E.C. 046); format: cell-based
[6] = system: Streptococcus sp. 1 X C15 (Strep C15); format: cell-based
[7] = system: Streptococcus sp. 1 X A7 (Strep A7); format: cell-based
[8] = system: Clostridium perfringens (Cp); format: cell-based; details: Anaerobic, 6 h, 37° C.
[9] = system: Bacteroides fragilis (Bf); assay: Antimicrobial growth inhibition, Bf; format: cell-based; details: Anaerobic, 6 h, 37° C.
[10] = system: anaerobic bacteria; format: cell-based
[11] = Growth promotion and feed utilization in chicks; format: in vivo, chicks (broiler cockerels)
[12] = experiment set 5, 75 ppm in feed, 8 weeks

SMILES | inhibition at 0.001 ppm [1] | inhibition at 0.01 ppm [1] | inhibition at 0.1 ppm [1] | inhibition at 1 ppm [1] | % Inhibition of Coccidia: T = toxic ([2]; 10.0 ppm) | % Inhibition of Coccidia: T = toxic ([2]; 100 ppm) | further results
COc1ccc(C2=Nc3cc(C)c(C)cc3NC2c2ccc(OC)cc2O)c(O)c1 (stereo not drawn) [Example 8, 2,3-di(2-hydroxy-4-methoxyphenyl)-6,7-dimethyl-1,2-dihydroquinoxaline] | 0% | 9% | 12% | 99% | T | T | 
Oc1ccc(Cl)cc1C1=Nc2cc(Cl)c(Cl)cc2NC1c1cc(Cl)ccc1O (stereo not drawn) [Example 1, 2,3-Di(2-hydroxy-5-chlorophenyl)-6-7-dichloro-1,2-dihydroquinoxaline] | 53% | 67% | 61% | 98% | T | T | Growth of S.T. in the presence of the test compound ([3]; 6.4 ppm): +; Growth of S.T. in the presence of the test compound ([3]; 64 ppm): +; Growth of E.C. 324 in the presence of the test compound ([4]; 6.4 ppm): +; Growth of E.C. 324 in the presence of the test compound ([4]; 64 ppm): +; Growth of E.C. 046 in the presence of the test compound ([5]; 6.4 ppm): +; Growth of E.C. 046 in the presence of the test compound ([5]; 64 ppm): +; Growth of Strep C15 in the presence of the test compound ([6]; 6.4 ppm): +; Growth of Strep C15 in the presence of the test compound ([6]; 64 ppm): +; Growth of Strep A7 in the presence of the test compound ([7]; 6.4 ppm): +; Growth of Strep A7 in the presence of the test compound ([7]; 64 ppm): +; Growth of Cp in the presence of the test compound ([8]; 6.4 ppm): -; Growth of Cp in the presence of the test compound ([8]; 64 ppm): -; Growth of Bf in the presence of the test compound ([9]; 6.4 ppm): -; Growth of Bf in the presence of the test compound ([9]; 64 ppm): -; activity against anaerobic bacteria [10]: possessed activity against both anaerobic microorganisms; feed efficiency (% better or worse than control) [11, 12]: 13%; weight gain (% better or worse than control) [11, 12]: 6%; growth promotion / feed efficiency ([11]; in vivo): found to improve both weight gain and feed efficiency
Oc1ccc(Cl)cc1C1=Nc2ccccc2NC1c1cc(Cl)ccc1O (stereo not drawn) [Example 5, 2,3-di(2-hydroxy-5-chlorophenyl)-1,2-dihydroquinoxaline] | 1% | 0% | 6% | 31% |  | T | inhibition at 10 ppm ([1]; 10.0 ppm): 100%
Oc1ccccc1C1=Nc2cc(Cl)c(Cl)cc2NC1c1ccccc1O (stereo not drawn) [Example 2, 2,3-di(2-hydroxyphenyl)-6,7-dichloro-1,2-dihydroquinoxaline] | 42% | 71% | 89% | 100% | T | T | 
